Assay results from US11365174B2 (priority 2016, dated 2022).
Entries after “also recorded” stand apart in the source; their conditions may differ. Read-outs that look alike come from different tables or passages of the source.

Test system: Influenza A virus strain A/Puerto Rico/8/1934 H1N1 (PR8; amantadine-resistant)
Type: cell-based
Conditions: for potency of antiviral activity for the PR8 strain compared to amantadine or to other compounds of the class: comparison within figure; for antiviral activity for the PR8 strain (NA activity as read-out for viral protein synthesis/replication): L929 cells, 18-20 hours, fluorescence normalized to DMSO; for antiviral activity for the PR8 strain (NA activity as read-out for viral protein synthesis/replication) / selective activity against PR8 strain in first screen of docking hits: half-log dilutions; for selective activity against PR8 strain in first screen of docking hits: 1-10 uM, alongside DMSO and amantadine, normalized to DMSO

SMILES: COc1ccccc1CNS(=O)(=O)c1c(C)cc([N+](=O)[O-])cc1C [JDB-0120]
- potency of antiviral activity for the PR8 strain compared to amantadine or to other compounds of the class: the most potent inhibitors of NA activity and PR8 virus replication; also recorded: the greatest activity for small molecules; also recorded: the greatest biological activity in the sulfonamide series

SMILES: Cc1cc([N+](=O)[O-])cc(C)c1S(=O)(=O)NCc1ccccc1Cl [JDB-0121]
- potency of antiviral activity for the PR8 strain compared to amantadine or to other compounds of the class: the most potent inhibitors of NA activity and PR8 virus replication; also recorded: the greatest activity for small molecules; also recorded: the greatest biological activity in the sulfonamide series

SMILES: NC12CC3CC(CC(C3)C1)C2 [amantadine, reference compound]
- antiviral activity for the PR8 strain (NA activity as read-out for viral protein synthesis/replication): moderately inhibited PR8 replication at high enough concentrations
- antiviral activity for the PR8 strain (NA activity as read-out for viral protein synthesis/replication) (listed as Amantadine): moderately inhibit the replication of the PR8 strain

SMILES: COc1ccc(C2OCC3(CO)C(C)C=C(C)C2C3C)cc1 (stereo not drawn) [analog 2, [8-(4-methoxyphenyl)-2,4,9-trimethyl-7-oxabicyclo[3.3.1]non-2-en-5-yl]methanol]
- antiviral activity for the PR8 strain (NA activity as read-out for viral protein synthesis/replication): antiviral activity for the PR8 strain
- potency of antiviral activity for the PR8 strain compared to amantadine or to other compounds of the class: more potent antiviral activity

SMILES: CC1=CCC2CC1C(c1ccc(O)cc1)OC2(C)C (stereo not drawn) [analog 4, 4-(2,2,6-trimethyl-3-oxabicyclo[3.3.1]non-6-en-4-yl)phenol]
- antiviral activity for the PR8 strain (NA activity as read-out for viral protein synthesis/replication): antiviral activity for the PR8 strain
- potency of antiviral activity for the PR8 strain compared to amantadine or to other compounds of the class: the most potent; also recorded: more potent antiviral activity

SMILES: COc1cc(C2OCC3(CO)C(C)C=C(C)C2C3C)ccc1O (stereo not drawn) [analog 5, 4-[5-(hydroxymethyl)-2,4,9-trimethyl-7-oxabicyclo[3.3.1]non-2-en-8-yl]-2-methoxyphenol]
- antiviral activity for the PR8 strain (NA activity as read-out for viral protein synthesis/replication): antiviral activity for the PR8 strain
- potency of antiviral activity for the PR8 strain compared to amantadine or to other compounds of the class: more potent antiviral activity

SMILES: Cc1cccc(CNS(=O)(=O)c2c(C)cc(C)cc2C)c1 [analog 7, 2,4,6-trimethyl-N-[(3-methylphenyl)methyl]benzenesulfonamide]
- antiviral activity for the PR8 strain (NA activity as read-out for viral protein synthesis/replication): potent inhibitors of NA activity and PR8 virus replication; also recorded: antiviral activity for the PR8 strain
- potency of antiviral activity for the PR8 strain compared to amantadine or to other compounds of the class: more potent antiviral activity; also recorded: more potent than amantadine

SMILES: Cc1cc(C)c(S(=O)(=O)NCc2ccccc2Cl)c(C)c1 [analog 11, N-[(2-chlorophenyl)methyl]-2,4,6 trimethylbenzenesulfonamide]
- antiviral activity for the PR8 strain (NA activity as read-out for viral protein synthesis/replication): potent inhibitors of NA activity and PR8 virus replication; also recorded: antiviral activity for the PR8 strain
- potency of antiviral activity for the PR8 strain compared to amantadine or to other compounds of the class: the most potent

SMILES: CC12CC3CC(C)(C1)CC(C(=O)Nc1ccc([N+](=O)[O-])cc1)(C3)C2 [analog 18, 3,5-dimethyl-N-(4-nitrophenyl)adamantane-1-carboxamide]
- antiviral activity for the PR8 strain (NA activity as read-out for viral protein synthesis/replication): antiviral activity for the PR8 strain
- potency of antiviral activity for the PR8 strain compared to amantadine or to other compounds of the class: the most potent

SMILES: Cc1cc([N+](=O)[O-])ccc1NC(=O)CC12CC3CC(CC(C3)C1)C2 [analog 21, 2-(1-adamantyl)-N-(2-methyl-4-nitrophenyl)acetamide]
- antiviral activity for the PR8 strain (NA activity as read-out for viral protein synthesis/replication): antiviral activity for the PR8 strain

SMILES: O=[N+]([O-])c1ccc(C23CC4CC(CC(C4)C2)C3)cc1 [analog 23, 1-(4-nitrophenyl)adamantane]
- antiviral activity for the PR8 strain (NA activity as read-out for viral protein synthesis/replication): antiviral activity for the PR8 strain

SMILES: COc1ccccc1CNS(=O)(=O)c1c(C)cc(C)cc1C [analog 31, N-[(2-methoxyphenyl)methyl]-2,4,6 trimethylbenzenesulfonamide]
- antiviral activity for the PR8 strain (NA activity as read-out for viral protein synthesis/replication): potent inhibitors of NA activity and PR8 virus replication; also recorded: antiviral activity for the PR8 strain
- potency of antiviral activity for the PR8 strain compared to amantadine or to other compounds of the class: the greatest activity

SMILES: Cc1cc(C)c(S(=O)(=O)NCc2ccccc2)c(C)c1 [compound 3, N-benzyl-2,4,6-trimethylbenzenesulfonamide]
- antiviral activity for the PR8 strain (NA activity as read-out for viral protein synthesis/replication): antiviral activity for the PR8 strain
- potency of antiviral activity for the PR8 strain compared to amantadine or to other compounds of the class: more potent than amantadine
- selective activity against PR8 strain in first screen of docking hits: selective activity against PR8 strain

SMILES: O=C(CC12CC3CC(CC(C3)C1)C2)Nc1ccc([N+](=O)[O-])cc1 [compound 16, 2-(1-adamantyl)-N-(4-nitrophenyl)acetamide]
- antiviral activity for the PR8 strain (NA activity as read-out for viral protein synthesis/replication): antiviral activity for the PR8 strain
- selective activity against PR8 strain in first screen of docking hits: selective activity against PR8 strain

SMILES: O=[N+]([O-])c1ccc(C23CC4CC(CC(O)(C4)C2)C3)cc1 [compound 19, 3-(4-nitrophenyl)adamantan-1-ol]
- antiviral activity for the PR8 strain (NA activity as read-out for viral protein synthesis/replication): antiviral activity for the PR8 strain
- selective activity against PR8 strain in first screen of docking hits: selective activity against PR8 strain
